The target of the series is APOL1. The settings on record: ASO.

This note sets out measurements from the OligoGym collection.

Where “and” joins values, the source holds several entries; their conditions need not be identical. Equal entries are not always repeated. After the bases stand the sugars from the 5' end (letter, count) and the backbone: PS all phosphorothioate, else s phosphorothioate and o phosphodiester by linkage. Methylation of C is not given here. e = 2'-O-(2-methoxyethyl) (MOE); k = constrained ethyl (cEt); d = 2'-deoxy (DNA)

For “TATTTCTTGATGTGGT (sugars kkdddddkekeddddd, PS)”, the target mRNA inhibition is 10% (A431, 0.0156 µM); 59% (A431, 0.0625 µM); 87% (A431, 0.25 µM); 96% (A431, 1 µM); 99% (A431, 2 µM).
With “CTATTAGAGGGCTAGT (sugars kkddddkekekkdddd, PS)”, the target mRNA inhibition (A431, 2 µM) is 25%.
Same read-out and setting: then “GTTTTGTAAGTGCAAC (sugars kddddkekekeddddd, PS)”, with 73%.
For “TATTTCTTGATGTGGT (sugars k2 d4 e3 k2 d5, PS)”, the target mRNA inhibition (A431, 0.0156 µM) is 37%; the target mRNA inhibition (A431, 0.0625 µM) is 78%; the target mRNA inhibition (A431, 0.25 µM) was 94%; the target mRNA inhibition (A431, 1 µM) was determined as 98%; the target mRNA inhibition (A431, 2 µM) amounted to 99%.
In turn, “TTCTATTAGAGGGCTA (sugars kkkddddkdkdkdddd, PS)” came in with a target mRNA inhibition (A431, 2 µM) of 78%.
With “GTTCTAACTCTTGGGC (sugars k2 d4 e3 k2 d5, PS)”, the target mRNA inhibition reads like this: (A431, 0.0156 µM) 20%; (A431, 0.0625 µM) 35%; (A431, 0.25 µM) 65%; (A431, 1 µM) 85%; (A431, 2 µM) 91%.
“TTATGAAATTATTGGT (sugars kkddddkekekddddd, PS)” came in with a target mRNA inhibition (A431, 2 µM) of 82%.
The same measure, in the same setting: then “AGTTTTGTAAGTGCAA (sugars kkkddddkekekdddd, PS)”, with 77%.
With “TTATATTTGATCCTCA (sugars k2 d4 e4 k2 d4, PS)”, the target mRNA inhibition is, setting by setting: (A431, 0.0156 µM) 0%; (A431, 0.0625 µM) 30%; (A431, 0.25 µM) 61%; (A431, 1 µM) 87%; (A431, 2 µM) 91%.
The sequence “ATCAGATGGGTACTTC (sugars kkkddddkekeddddd, PS)” registered a target mRNA inhibition (A431, 2 µM) of 85%.
The same measure, in the same setting: then “GCTTTAAACTCAGGTG (sugars k3 d4 k3 e1 d5, PS)”, with 74%.
On to CACATCATTGGGTTAT (sugars k4 d9 k3, PS), for which the target mRNA inhibition is 65% (A431, 0.0625 µM); 84% (A431, 0.25 µM); 90% (A431, 1 µM).
As for “GTTATATTTGATCCTC (sugars kkddddkekekkdddd, PS)”, the target mRNA inhibition (A431, 2 µM) turned out to be 43%.
The same measure, in the same setting: the value for “GTGAGTATTGTTTTTG (sugars k2 d4 e3 k2 d5, PS)” was 92%.
The same measure, in the same setting: then “TGTTATATTTGATCCT (sugars kdddddkekekddddd, PS)”, with 79%.
On to TGAAACATTCCTGGAC (sugars k4 d9 k3, PS), for which the target mRNA inhibition runs as follows: (A431, 0.0625 µM) 28% and 8%; (A431, 0.25 µM) 55% and 32%; (A431, 1 µM) 80% and 65%.
With AATGTTTGCATTTGGG (sugars k4 d9 k3, PS), the target mRNA inhibition was 95% (A431, 0.0625 µM); 99% and 97% (A431, 0.25 µM); 100% and 98% (A431, 1 µM).
Sequence “GTTATATTTGATCCTC (sugars kkdddddkekeddddd, PS)” gave a target mRNA inhibition (A431, 2 µM) of 97%.
On the same count and under the same terms, the value for “TTCTATTAGAGGGCTA (sugars kkkddddkekeddddd, PS)” was 91%.
Same read-out and setting: the value for “GTTATATTTGATCCTC (sugars k3 d4 k3 e1 d5, PS)” was 98%; that for “TATCAGATGGGTACTT (sugars k2 d4 e3 k2 d5, PS)” was 70%.
“GGCATTCAGAATTTCC (sugars k2 d4 e3 k2 d5, PS)” yielded a target mRNA inhibition (A431, 2 µM) of 97%.
As to AGCATCAAAAACCTGG (sugars k4 d9 k3, PS), the target mRNA inhibition reads like this: (A431, 0.0625 µM) 66%; (A431, 0.25 µM) 81%; (A431, 1 µM) 89%.
The corresponding values for GTGTGAGTTGGTAAGT (sugars k4 d9 k3, PS) are 54%, 85% and 95%.
On to ATTTCTTGATGTGGTG (sugars k4 d9 k3, PS), for which the target mRNA inhibition was determined as 95% (A431, 0.0625 µM); 99% (A431, 0.25 µM); 99% (A431, 1 µM).
Consider “GAACGCAATGCTGACT (sugars kkddddekekeddddd, PS)”, for which the target mRNA inhibition is, setting by setting: (A431, 0.0156 µM) 19%; (A431, 0.0625 µM) 40%; (A431, 0.25 µM) 74%; (A431, 1 µM) 92%; (A431, 2 µM) 95%.
Under “A431, 2 µM”, “GTATTTCTTGATGTGG (sugars kdddddkekekddddd, PS)” had a target mRNA inhibition of 92%.
Consider “ATTCTCATGGTACAGG (sugars kkddddekekeddddd, PS)”, for which the target mRNA inhibition runs as follows: (A431, 0.0156 µM) 40%; (A431, 0.0625 µM) 41%; (A431, 0.25 µM) 71%; (A431, 1 µM) 90%; (A431, 2 µM) 95%.
For “AGTATTGCCAGCTAAG (sugars kkkddddkekekdddd, PS)”, where the note is “A431, 2 µM”, the target mRNA inhibition came out at 66%.
